The record followed here is patent US20250288571A1 (Nested Therapeutics, Inc., priority 2024, published 2025).

Each structure is given as a SMILES string.

The test system of experiment [1] is pMEK. The experiment can be described thus: pMEK AlphaLISA (MEK1 pS218/222), A549 cells, EGF stimulated. The following applies: Homo sapiens, 2 h compound, EGF 30 ng/ml 15 min. Format: cell-based. On the procedure:
(§1) Determination of pMEK IC50s
(§2) A549 cells were cultured in F12K/10% FBS media (ATCC CAT #21127022) and were seeded at 10000 cells/well and HCT116 cells were cultured in McCoy's 5A/10% FBS media (Gibco Cat #30-2007) were seeded at 15000 cells/well in 384 microplates (Corning CAT #3765). Cells were incubated overnight in a TC incubator. Compounds were serially diluted and added to cells for 2 h in a TC incubator. At the end of the 2 h EGF (R&D Systems 236-EG-200) was added at a final EGF concentration of 30 ng/ml and incubated for 15 minutes at 37° C. in a TC incubator. AlphaLisa (Perkin Elmer) was performed according to manufacturer's instructions (Perkin Elmer CAT #ALPHA.SF ULTRA MEK1 PS218/222). The percent (%) inhibition at each concentration of compound is calculated based on and relative to the AlphaLISA signal in the HPE and ZPE control wells contained within each assay plate. The ZPE control wells contain cells and DMSO as 0% inhibition, and the HPE control wells only contain cells and control compound (Sellekchem Staurosporin CAT #S1421) as 100% inhibition.
(In Alpha technology, singlet oxygen from a donor bead excites a nearby acceptor bead.)

In experiment [2] the test system is pMEK. Kind of experiment: pMEK AlphaLISA (MEK1 pS218/222), HCT116 cells, EGF stimulated. Format: cell-based. To be noted: Homo sapiens, HCT-116, 2 h compound, EGF 30 ng/ml 15 min. On the procedure: as §1, §2
Experiment [3] concerns pERK Thr202/Tyr204. Kind of experiment: pERK HTRF detection of pERK Thr202/Tyr204, A549 cells. It counts as cell-based. The following applies: Homo sapiens, 2 h compound. As for the experimental part: (§3) pERK: Detection of pERK Thr202/Tyr204
(§4) A549 cultured in F-12K/10% FBS were seeded at 10000 cells/well, and HCT116 cultured in McCoy's 5A/10% FBS were seeded at 15000 cells/well cells into Corning 384-well plates, respectively. Cells were incubated overnight in a TC incubator. Compounds were serially diluted and added to cells for 2 h in a TC incubator. Cells were then lysed according to manufacture protocol (Cisbio CAT #: 64AERPEG). Cell lysate was mixed with phospho-ERK (Thr202/Tyr204) antibody solution at 5:1 (v:v). Lysate and antibody mixture were incubated overnight at room temperature. HTRF signal was read at two different wavelengths (665 nm and 620 nm) on a compatible HTRF reader.

In another experiment the test system is HCT116 cells. The experiment can be described thus: HCT116 Cell Titer Glow assay (CTG). The following applies: Homo sapiens, HCT-116, 72 h; for IC50: read-out: CTG IC50 (nM) Cell Line: HCT116.20.
Experiment [4] deals with pERK Thr202/Tyr204. The experiment can be described thus: pERK HTRF detection of pERK Thr202/Tyr204, HCT116 cells. It counts as cell-based. To be noted: Homo sapiens, HCT-116, 2 h compound. As for the experimental part: as §3, §4
The subject of the next experiment is IPC298 cells. The experiment can be described thus: IPC298 Cell Titer Glow assay (CTG). To be noted: Homo sapiens, IPC-298, 72 h; for IC50: read-out: CTG IC50 (nM) Cell Line: IPC298.2. (In general: Cellular ATP, detected with luciferase, serves as a proxy for viable cell number.)

One may read the IC50 as the point on the concentration scale where inhibition reaches its midpoint. Usually viability stands for a read-out of living cells in per cent, often relative to untreated cells.

Consider `CNS(=O)(=O)Nc1nccc(Cc2cncc(Nc3ccc(Br)cc3F)c2C)c1F` [Example 1, N-(4-bromo-2-fluorophenyl)-5-({3-fluoro-2-[(methylsulfamoyl)amino]pyridin-4-yl}methyl)-4-methylpyridin-3-amine], for which the half-maximal inhibitory concentration (IC50) in the experiment on pMEK [1], with pMEK [2], in the experiment with pERK Thr202/Tyr204 [3], with HCT116 cells, with pERK Thr202/Tyr204 [4] and in the experiment with IPC298 cells was below 10 nM each time.
On to `CC(=O)Nc1nccc(Cc2cncc(Nc3ccc(Br)cc3F)c2C)c1F` [Example 3, N-[4-({5-[(4-bromo-2-fluorophenyl)amino]-4-methylpyridin-3-yl}methyl)-3-fluoropyridin-2-yl]acetamide], for which the IC50 in the experiment with pMEK [1] was 10 to 100 nM; in the experiment on pMEK [2], 10 to 100 nM; with pERK Thr202/Tyr204 [3], below 10 nM; in the experiment with pERK Thr202/Tyr204 [4], below 10 nM.
Take `COC(=O)Nc1nccc(Cc2cncc(Nc3ccc(Br)cc3F)c2C)c1F` [Example 4, methyl N-[4-({5-[(4-bromo-2-fluorophenyl)amino]-4-methylpyridin-3-yl}methyl)-3-fluoropyridin-2-yl]carbamate]: the IC50 in the experiment with pMEK [1], in the experiment with pMEK [2], in the experiment with pERK Thr202/Tyr204 [3] and in the experiment on pERK Thr202/Tyr204 [4] was 10 to 100 nM each time.
For the molecule `CNS(=O)(=O)Nc1ccc(Cc2cncc(Nc3ccc(Br)cc3F)c2C)cc1` [Example 5, N-(4-bromo-2-fluorophenyl)-4-methyl-5-({4-[(methylsulfamoyl)amino]phenyl}methyl)pyridin-3-amine], the concentration for half-maximal inhibition (IC50) in the experiment on pMEK [1] is below 10 nM; in the experiment with pMEK [2] it was below 10 nM; with pERK Thr202/Tyr204 [3], below 10 nM; in the experiment with HCT116 cells, 10 to 100 nM; in the experiment with pERK Thr202/Tyr204 [4], below 10 nM; with IPC298 cells it was below 10 nM.
As to `CNS(=O)(=O)Nc1nccc(Cc2cncc(Nc3ccc(Cl)cc3F)c2C)c1F` [Example 6, N-(4-chloro-2-fluorophenyl)-5-({3-fluoro-2-[(methylsulfamoyl)amino]pyridin-4-yl}methyl)-4-methylpyridin-3-amine], the IC50 is below 10 nM in the experiment on pMEK [1]; below 10 nM in the experiment with pMEK [2]; below 10 nM in the experiment on pERK Thr202/Tyr204 [3]; 10 to 100 nM in the experiment with HCT116 cells; below 10 nM in the experiment with pERK Thr202/Tyr204 [4].
As to `Cc1c(Cc2ccnc(S(C)(=O)=O)c2F)cncc1Nc1ccc(Br)cc1F` [Example 9, N-(4-bromo-2-fluorophenyl)-5-[(3-fluoro-2-methanesulfonylpyridin-4-yl)methyl]-4-methylpyridin-3-amine], the IC50 with pMEK [1] was below 10 nM; in the experiment on pMEK [2] it was 10 to 100 nM; in the experiment with pERK Thr202/Tyr204 [3], below 10 nM; in the experiment with pERK Thr202/Tyr204 [4] it was below 10 nM.
Turning to `CNC(=O)Nc1nccc(Cc2cncc(Nc3ccc(Br)cc3F)c2C)c1F` [Example 12, 1-[4-({5-[(4-bromo-2-fluorophenyl)amino]-4-methylpyridin-3-yl}methyl)-3-fluoropyridin-2-yl]-3-methylurea], the 50% inhibitory concentration (IC50) in the experiment with pMEK [1], in the experiment on pMEK [2], in the experiment with pERK Thr202/Tyr204 [3] and with pERK Thr202/Tyr204 [4] was below 10 nM throughout.
As for `CNS(=O)(=O)Nc1nccc(Cc2cncc(OC)c2C)c1F` [Example 24, ({3-fluoro-4-[(5-methoxy-4-methylpyridin-3-yl)methyl]pyridin-2-yl}sulfamoyl)(methyl)amine], the IC50 with pMEK [1] is 10 to 100 nM; with pMEK [2] (numeric value), above 100 nM; in the experiment on HCT116 cells, 100 to 500 nM; in the experiment on IPC298 cells, below 10 nM.
On to `CNS(=O)(=O)Nc1nccc(Cc2cncc(Nc3ccc(Cl)cc3F)c2F)c1F` [Example 26, 4-[[5-(4-chloro-2-fluoro-anilino)-4-fluoro-3-pyridyl]methyl]-3-fluoro-N-(methylsulfamoyl)pyridin-2-amine], for which the IC50 with pMEK [1] is below 10 nM; in the experiment with pMEK [2], below 10 nM; in the experiment on HCT116 cells, 100 to 500 nM; with IPC298 cells, 10 to 100 nM.
In the case of `CNS(=O)(=O)Nc1nccc(Cc2cncc(Oc3ccc(Cl)cn3)c2C)c1F` [Example 27, {[4-({5-[(5-chloropyridin-2-yl)oxy]-4-methylpyridin-3-yl}methyl)-3-fluoropyridin-2-yl]sulfamoyl}(methyl)amine], the IC50 with pMEK [1] was below 10 nM; with pMEK [2], below 10 nM; in the experiment with HCT116 cells, 500 to 1000 nM; with IPC298 cells it was 10 to 100 nM.
`Cc1c(Cc2ccnc(S(C)(=O)=O)c2F)cncc1Nc1ccc(Cl)cc1F` [Example 28, N-(4-chloro-2-fluorophenyl)-5-[(3-fluoro-2-methanesulfonylpyridin-4-yl)methyl]-4-methylpyridin-3-amine]: the half-inhibitory concentration (IC50) with pMEK [1] was 10 to 100 nM; with pMEK [2] it was 10 to 100 nM; in the experiment on HCT116 cells, above 1000 nM; in the experiment with IPC298 cells, 10 to 100 nM.
As for `CNS(=O)(=O)Nc1nccc(Cc2cncc(Nc3ccc(Cl)cc3OC)c2C)c1F` [Example 35, 4-[[5-(4-chloro-2-methoxy-anilino)-4-methyl-3-pyridyl]methyl]-3-fluoro-N-(methylsulfamoyl)pyridin-2-amine], the half-inhibitory concentration (IC50) in the experiment on pMEK [1], with pMEK [2], in the experiment with HCT116 cells and with IPC298 cells was below 10 nM throughout.
`CNS(=O)(=O)Nc1nccc(Cc2cncc(Nc3ccc(Cl)cc3F)c2OC)c1F` [Example 37, N-(4-chloro-2-fluorophenyl)-5-({3-fluoro-2-[(methylsulfamoyl)amino]pyridin-4-yl}methyl)-4-methoxypyridin-3-amine]: the 50% inhibitory concentration (IC50) is below 10 nM in the experiment with pMEK [1]; below 10 nM in the experiment with pMEK [2]; 10 to 100 nM in the experiment on HCT116 cells; 0.362 nM with pERK Thr202/Tyr204 [4] (numeric value); below 10 nM in the experiment with IPC298 cells.
On to `CNS(=O)(=O)Nc1nccc(Cc2cncc(Nc3ccc(Cl)cc3F)c2C(F)(F)F)c1F` [Example 38, N-(4-chloro-2-fluorophenyl)-5-({3-fluoro-2-[(methylsulfamoyl)amino]pyridin-4-yl}methyl)-4-(trifluoromethyl)pyridin-3-amine], for which the concentration for half-maximal inhibition (IC50) was below 10 nM with pMEK [1]; below 10 nM in the experiment with pMEK [2]; below 10 nM with HCT116 cells; 0.241 nM in the experiment on pERK Thr202/Tyr204 [4] (numeric value); below 10 nM in the experiment on IPC298 cells.
Turning to `CNS(=O)(=O)Nc1nccc(Cc2cncc(Nc3ccc(OC(F)(F)F)cc3F)c2C)c1F` [Example 39], the IC50 in the experiment on pMEK [1] was below 10 nM; with pMEK [2] it was below 10 nM; in the experiment with HCT116 cells, 10 to 100 nM; in the experiment with pERK Thr202/Tyr204 [4] (numeric value), 0.354 nM; in the experiment with IPC298 cells it was below 10 nM.
For `CNS(=O)(=O)Nc1nccc(Cc2cncc(Oc3ccc(Cl)cc3F)n2)c1F` [Example 40, 4-[[6-(4-chloro-2-fluoro-phenoxy)pyrazin-2-yl]methyl]-3-fluoro-N-(methylsulfamoyl)pyridin-2-amine], the half-inhibitory concentration (IC50) in the experiment with pMEK [1], in the experiment on pMEK [2], in the experiment on HCT116 cells, in the experiment with pERK Thr202/Tyr204 [4] (numeric value) and in the experiment on IPC298 cells was above 1000 nM each time. In the experiment on HCT116 cells (read-out: CTG % cell viability 1000 uM HCT116.20, HCT116 cells, 72 hours, 1000 uM, percent cells remaining after treatment), the viability at 1000 µM came out at 101%. Besides, in the experiment with IPC298 cells (read-out: CTG % cell viability 100 uM IPC298.2, IPC298 cells, 72 hours, 100 uM, percent cells remaining after treatment), the viability at 100 µM turned out to be 95.2%.
As to `CNS(=O)(=O)Nc1nccc(Cc2cncc(Nc3nc4c(cc3F)OCCO4)c2C)c1F` [Example 41, 7-fluoro-N-[5-[[3-fluoro-2-(methylsulfamoylamino)-4-pyridyl]methyl]-4-methyl-3-pyridyl]-2,3-dihydro-[1,4]dioxino[2,3-b]pyridin-6-amine], the IC50 in the experiment on pMEK [1] is below 10 nM; in the experiment on pMEK [2], below 10 nM; with HCT116 cells, 100 to 500 nM; in the experiment on pERK Thr202/Tyr204 [4] (numeric value) it was 2.32 nM; with IPC298 cells, 10 to 100 nM.
For `CNS(=O)(=O)Nc1nccc(Cc2cncc(Nc3cc4c(cc3F)OCCO4)c2C)c1F` [Example 42, 3-fluoro-4-[[5-[(6-fluoro-2,3-dihydro-1,4-benzodioxin-7-yl)amino]-4-methyl-3-pyridyl]methyl]-N-(methylsulfamoyl)pyridin-2-amine], the IC50 is below 10 nM in the experiment on pMEK [1]; below 10 nM in the experiment with pMEK [2]; 100 to 500 nM in the experiment with HCT116 cells; 0.791 nM with pERK Thr202/Tyr204 [4] (numeric value); 10 to 100 nM in the experiment with IPC298 cells.
